This is an account of results in patent US20120132594A1, “AQUEOUS SOLVENTS FOR HYDROCARBONS AND OTHER HYDROPHOBIC COMPOUNDS” (IMPERIAL INNOVATIONS LIMITED, priority 2009, published 2012).

The nature of this series: Extraction of organic standards from spiked JSC-1 rock with aqueous polysorbate 80 solution, GC-MS. It is filed as physicochemical. Particulars: ultrasonication 20 minutes. The method, then:
JSC-1, a Martian and lunar analogue (McKay et al. (1993) JSC-1: A new lunar regolith simulant. Lunar and Planetary Institute Conference Abstracts), was spiked with various hydrocarbon compound classes (Table 1 below). All are known to be soluble in organic solvents, and are considered mostly insoluble in water with the exception of atrazine. 1 ml of a mixture of 10.0 ng ml^−1 hydrocarbon standards were spiked on to 1 g of rock, the concentrations of each non-aromatic standard amounted to 10.0 ng g^−1 rock (10 ppb). Terphenyl (an aromatic compound) was used as a second quantitation standard, added just before analysis in order to establish extraction efficiencies for the JSC-1 rock.
1 g samples of spiked JSC-1 rock were placed in test tubes, with 3 ml solvent and the mixture subjected to ultrasonication (20 minutes). The solvent was an aqueous surfactant solution containing polysorbate 80 in various amounts (either 1.5 g/L or 2.5 g/L), as set out in Table 1 below. The surfactant was dissolved either in water that contains 20% methanol (referred to in Table 1 as “w MeOH”) or pure water (“w/o MeOH”). After sonication the mixture was centrifuged (2500 rpm×10 min) and the supernatant pipetted into a test tube. A liquid/liquid extraction was then performed with dichloromethane, the dichloromethane was then blown down via nitrogen to 1 ml ready for further analysis by gas chromatography-mass spectrometry.
The organic constituents of extracts were separated on an Agilent technologies 6890N gas chromatograph. Extracts were dissolved in 1 ml dichloromethane and 1 μl was introduced via splitless injection into a HP-5 (0.25 mm×30 m×[…]) capillary column in a helium carrier gas. The column oven was operated with a temperature programme starting at 50° C. for 1 min followed by a ramp of 5° C. min−1 until 310° C. where the temperature was held for 20 min. Individual compounds were identified by introducing the column effluent into an Agilent technologies 5973 inert mass selective detector operated with a 12 min solvent delay and a scan range of m/z 50-550.
The extraction efficiency is measured as the percentage of the organic compounds that are extracted as compared to the amount originally present in the rock. […] Other variables include temperature and pressure. As can also be seen from Table 1, the optimum recovery appears to take place between about 0.5 an 3 grams per litre of polysorbate 80, which corresponds to 40 to 230 times the cmc of polysorbate 80.

Where [1] appears, read: polysorbate 80 1.5 g/L, with MeOH (water containing 20% methanol).
[2] abbreviates: polysorbate 80 1.5 g/L, without MeOH (pure water).
The mark [3] stands for this setting: polysorbate 80 2.5 g/L, with MeOH (water containing 20% methanol).
Where [4] appears, read: polysorbate 80 2.5 g/L, without MeOH (pure water).

Each structure is given as a SMILES string.

As to `c1ccc2cc3ccccc3cc2c1` [Anthracene], the Extraction efficiency amounted to 0% under setting [1], 0% under setting [2], 5.2% under setting [3] and 22.86% under setting [4].
As for `CCNc1nc(Cl)nc(NC(C)C)n1` [Atrazine], the Extraction efficiency is, setting by setting: under setting [1], 7.35%; under setting [2], 12.6%; under setting [3], 5.4%; under setting [4], 5.62%.
On the same counts, the results for `c1ccc2c(c1)c1cccc3ccc4cccc2c4c31` [Benzo(e)pyrene] are 2.38%, 0%, 20.33% and 30.55%.
As for `CCCCCCCCCCCCCCCC` [Hexadecane], the Extraction efficiency is, setting by setting: under setting [1], 4.21%; under setting [2], 14.2%; under setting [3], 0.54%; under setting [4], 0.73%.
Turning to `CCC(C)CCCC(C)CCCC(C)CCCC(C)C` (stereo not shown) [Phytane], the Extraction efficiency is given as 8.91% under setting [1], 29.08% under setting [2], 0.93% under setting [3] and 10.7% under setting [4].
For `CC(C)=CCC/C(C)=C/CC/C(C)=C/CC/C=C(\C)CC/C=C(\C)CCC=C(C)C` [Squalene] the same measures were 6.11%, 19.71%, 0.58% and 9.11%.
In the case of `CC[C@H](/C=C/[C@@H](C)[C@H]1CC[C@H]2[C@@H]3CC=C4C[C@@H](O)CC[C@]4(C)[C@H]3CC[C@]12C)C(C)C` [Stigmasterol], the Extraction efficiency runs as follows: under setting [1], 0%; under setting [2], 0%; under setting [3], 3.06%; under setting [4], 10.88%.
